# Measurements as given in patent US20190016686A1, “SALTS OF COMPOUNDS HAVING A BENZIMIDAZOLIC STRUCTURE, USES AND PROCESS FOR THE PREPARATION THEREOF” (ISTITUTO SUPERIORE DI SANITÀ, priority 2015, published 2019).
# Where two headings read alike, the source gives them in different places.
# What was measured:
# [1] = cited from earlier work
# [2] = test system: cell lines of ovarian carcinoma; conditions: published results; cited from earlier work
# [3] = test system: cell lines of glioblastoma multiforme; conditions: published results; cited from earlier work
# [4] = solubility in solvents (ethanol, methanol, water, n-hexane); assay type: physicochemical; conditions: salt of the invention
# [5] = literature value (J Pharm Sci 94(5), 2005)
smiles,measurement,setting,value
"CCC[S+]([O-])c1ccc2[nH]c(NC(=O)OC)nc2c1 (centres unmarked) [ABZ-SO, Albendazole sulphoxide]",solubility in ethanol,[1]; [5],1360 µg/mL
same,solubility in ethanol,"[1]; non-salified sulphoxide, stated as known",circa 1 mg mL^−1
same,solubility in methanol,"[1]; methanol, in words",slightly soluble
same,solubility in n-hexane,"[1]; n-hexane, in words",practically insoluble
same,solubility in water,[1]; in words,practically insoluble
same,solubility in water,"[1]; in words, listed as RBZ",poorly soluble
same,solubility in water,[1]; [5],62 µg/mL
"COC(=O)Nc1nc2ccc(C(=O)c3ccccc3)cc2[nH]1 [MBZ, mebendazole]",cytotoxicity,[2],demonstrated cytotoxicity
same,cytotoxicity,[3],demonstrated cytotoxicity
CCC[S+]([O-])c1ccc2[n-]c(NC(=O)OC)nc2c1.[Na+] (centres unmarked) [ABZ-SO—Na],solubility in ethanol,[4]; ethanol,about 30 mg mL^−1
same,solubility in methanol,[4]; methanol,about 30 mg mL^−1
